Here are results for 35 molecules from patent US20250388593A1 (MITSUBISHI TANABE PHARMA CORPORATION, priority 2023, published 2025).

In general, Kd refers to the equilibrium constant for the complex coming apart.

Some results are limits rather than exact numbers.

The target of this assay is CRBN truncate (318-426) (Homo sapiens (Human), UniProt Q96SW2). As to the kind of experiment: Measurement of molecular interactions using surface plasmon resonance (SPR), Biacore T200. The format is binding. The following applies: 25° C., immobilized CRBN truncate, upper limit of measurement 200 μM. On the procedure: The instrument used was the Biacore T200 (manufactured by Cytiva). The CRBN truncate (318-426) was obtained by expressing a construct with an Avi-tag added at the C-terminus. The sensor chip used was Sensor Chip SA (manufactured by Cytiva). The CRBN truncate was immobilized using the affinity between SA (streptavidin) on the sensor chip and the Avi-tag. The running buffer was a mixture of 10 mM HEPES pH 7.5, 150 mM NaCl, 1 mM TCEP, 0.005% Tween 20, and 2% DMSO. […] Contact time and dissociation time were set at 60 seconds and 120 seconds, respectively.
Chain of CRBN truncate (318-426) (Q96SW2 318-426): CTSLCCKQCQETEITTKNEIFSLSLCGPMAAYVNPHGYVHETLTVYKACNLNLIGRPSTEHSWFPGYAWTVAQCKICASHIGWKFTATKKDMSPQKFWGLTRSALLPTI
On the technique in general: In SPR one partner is held on a chip, and binding of the other changes the refractive index at the surface.
For `CC(C)(C)OC(=O)CCc1ccc2c(c1)oc(=O)n2C1CCCC(=O)NC1=O` (centres unmarked) [Example 260, tert-Butyl 3-[3-(2,7-dioxoazepan-3-yl)-2-oxo-1,3-benzoxazol-6-yl]propanoate], the dissociation constant (Kd) lay in the range of 50 to 100 µM. With `CC(C)(C)OC(=O)NCCOCCOCCn1c(=O)n(C2CCCC(=O)NC2=O)c2ccccc21` (centres unmarked) [Example 199, tert-Butyl N-[2-[2-[2-[3-(2,7-dioxoazepan-3-yl)-2-oxobenzimidazol-1-yl]ethoxy]ethoxy]ethyl]carbamate] the figure was at least 100 µM.

As to `CC(C)(C)OC(=O)N(CC1CCCC(=O)NC1=O)c1ccc(F)cc1` (centres unmarked) [Example 24, tert-Butyl N-[(2,7-dioxoazepan-3-yl)methyl]-N-(4-fluorophenyl) carbamate], the Kd was at least 100 µM. With `O=C1CCCC(n2nc(-c3ccccc3)ccc2=O)C(=O)N1` (centres unmarked) [Example 246, 3-(6-Oxo-3-phenylpyridazin-1-yl) azepane-2,7-dione] the figure was 50 to 100 µM. With `CC(C)(C)OC(=O)c1ccc(N2CC3(CCCC(=O)NC3=O)CC2=O)nc1` (centres unmarked) [Example 113, tert-Butyl 6-(3,6,8-trioxo-2,7-diazaspiro [4.6]undecan-2-yl) pyridine-3-carboxylate] the figure was at least 100 µM; with `Cc1sc2c(c1C)C(c1ccc(Cl)cc1)=N[C@@H](CC(=O)NCCCCCCCCNC(=O)CCc1ccc(-c3nn(C4CCCC(=O)NC4=O)c(=O)n3C)cc1)c1nnc(C)n1-2` (stereo partly drawn) [Example 336, N-[8-[[2-[(9S)-7-(4-chlorophenyl)-4,5,13-trimethyl-3-thia-1,8,11,12-tetraazatricyclo[8.3.0.02,6]trideca-2(6),4,7,10,12-pentaen-9-yl]acetyl]amino]octyl]-3-[4-[1-(2,7-dioxoazepan-3-yl)-4-methyl-5-oxo-1,2,4-triazol-3-yl]phenyl]propanamide], below 50 µM; with `CC(C)(C)OC(=O)COc1ccccc1-c1cn(C2CCCC(=O)NC2=O)nn1` (centres unmarked) [Example 149, tert-Butyl 2-[2-[1-(2,7-dioxoazepan-3-yl)triazol-4-yl]phenoxy]acetate], at least 100 µM.

As to `CC(C)(C)OC(=O)CCc1ccc2c(c1)sc(=O)n2C1CCCC(=O)NC1=O` (centres unmarked) [Example 262, tert-Butyl 3-[3-(2,7-dioxoazepan-3-yl)-2-oxo-1,3-benzothiazol-6-yl]propanoate], the Kd was 50 to 100 µM. The molecule `Cn1c(=O)n(C2CCCC(=O)NC2=O)c2cccc(I)c21` (centres unmarked) [Example 210, 3-(4-Iodo-3-methyl-2-oxobenzimidazol-1-yl) azepane-2,7-dione] displayed a dissociation constant (Kd) of 50 to 100 µM. As to `O=C1CCCC2(CCN(c3ccc([N+](=O)[O-])cn3)C2)C(=O)N1` (centres unmarked) [Example 75, 2-(5-nitro-2-pyridyl)-2,7-diazaspiro[4.6]undecane-6,8-dione], the Kd is below 50 µM.

As for `Cn1ccc2c(N3CC4(CC(=O)N(C5CCC(=O)NC5=O)C4=O)C3)ncnc21` (centres unmarked) [Example 235, 6-(2,6-Dioxopiperidin-3-yl)-2-(7-methylpyrrolo[2,3-d]pyrimidin-4-yl)-2,6-diazaspiro[3.4]octane-5,7-dione], the equilibrium dissociation constant (Kd) was at least 100 µM. With `Nc1ccc(N2CCC(N3CCCC(=O)NC3=O)C2=O)cc1` (centres unmarked) [Example 297, 1-[1-(4-Aminophenyl)-2-oxopyrrolidin-3-yl]-1,3-diazepane-2,4-dione] the figure was at least 100 µM; with `COC(=O)c1ccc(CN2CC3(CC(=O)N(C4CCC(=O)NC4=O)C3=O)C2)cc1` (centres unmarked) [Example 54, Methyl 4-[[6-(2,6-dioxopiperidin-3-yl)-5,7-dioxo-2,6-diazaspiro[3.4]octan-2-yl]methyl]benzoate], 50 to 100 µM; with `O=C1NC(=O)C2(c3ccc(Br)cc3)CCC1CC2` [Example 167, 1-(4-Bromophenyl)-3-azabicyclo [3.2.2]nonane-2,4-dione], at least 100 µM. With `O=C1CCCC(Oc2ccc(Br)cc2)C(=O)N1` (centres unmarked) [Example 267, 3-(4-Bromophenoxy) azepane-2,7-dione] the figure was at least 100 µM; with `Cc1sc2c(c1C)C(c1ccc(Cl)cc1)=N[C@@H](CC(=O)NCCCCCCCCNC(=O)CCc1ccc3c(c1)oc(=O)n3C1CCCC(=O)NC1=O)c1nnc(C)n1-2` (stereo partly drawn) [Example 341, N-[8-[[2-[(9S)-7-(4-chlorophenyl)-4,5,13-trimethyl-3-thia-1,8,11,12-tetraazatricyclo[8.3.0.02,6]trideca-2(6),4,7,10,12-pentaen-9-yl]acetyl]amino]octyl]-3-[3-(2,7-dioxoazepan-3-yl)-2-oxo-1,3-benzoxazol-6-yl]propanamide], below 50 µM; with `CC(C)(C)OC(=O)c1ccc(N2CCC3(CCCC(=O)NC3=O)C2)nc1` (centres unmarked) [Example 90-1, tert-Butyl 6-(6,8-dioxo-2,7-diazaspiro [4.6]undecan-2-yl) pyridine-3-carboxylate], below 50 µM. `CC(C)(C)OC(=O)N1CCN(C(=O)c2ccc(N3CCC4(CCCC(=O)NC4=O)C3)nc2)CC1` (centres unmarked) [Example 97, tert-Butyl 4-[6-(6,8-dioxo-2,7-diazaspiro [4.6]undecan-2-yl)pyridine-3-carbonyl]piperazine-1-carboxylate] came in with a Kd of at least 100 µM.

`Cc1sc2c(c1C)C(c1ccc(Cl)cc1)=N[C@@H](CC(=O)NCCCCCCCCNC(=O)c1cc3c(N4CCC5(CCCC(=O)NC5=O)C4)ncnc3n1C)c1nnc(C)n1-2` (stereo partly drawn) [Example 328, N-[8-[[2-[(9S)-7-(4-Chlorophenyl)-4,5,13-trimethyl-3-thia-1,8,11,12-tetraazatricyclo[8.3.0.02,6]trideca-2(6),4,7,10,12-pentaen-9-yl]acetyl]amino]octyl]-4-(6,8-dioxo-2,7-diazaspiro[4.6]undecan-2-yl)-7-methylpyrrolo[2,3-d]pyrimidine-6-carboxamide]: the Kd was below 50 µM. The result for `Cc1sc2c(c1C)C(c1ccc(Cl)cc1)=N[C@@H](CC(=O)NCCCCCCc1cccc(C(=O)N3CCC4(CCCC(=O)NC4=O)C3)c1)c1nnc(C)n1-2` (stereo partly drawn) [Example 308, 2-[(9S)-7-(4-chlorophenyl)-4,5,13-trimethyl-3-thia-1,8,11,12-tetraazatricyclo[8.3.0.02,6]trideca-2(6),4,7,10,12-pentaen-9-yl]-N-[6-[3-(6,8-dioxo-2,7-diazaspiro[4.6]undecane-2-carbonyl)phenyl]hexyl]acetamide] reads at least 100 µM. With `Cn1c(=O)n([C@@H]2CCCC(=O)NC2=O)c2cccc(I)c21` (single isomer, unassigned) [Example 211, 3-(4-Iodo-3-methyl-2-oxobenzimidazol-1-yl) azepane-2,7-dione] the figure was 50 to 100 µM. With `CC(=O)Nc1ccc(N2CCC3(CCCC(=O)NC3=O)C2)c(F)c1` (centres unmarked) [Example 88, N-[4-(6,8-dioxo-2,7-diazaspiro[4.6]undecan-2-yl)-3-fluorophenyl]acetamide] the figure was at least 100 µM. As to `CC(C)(C)OC(=O)c1ccc(N2CCC3(CCCC(=O)NC3=O)C2)nn1` (centres unmarked) [Example 184, tert-Butyl 6-(6,8-dioxo-2,7-diazaspiro[4.6]undecan-2-yl)pyridazine-3-carboxylate], the Kd was at least 100 µM. `CC(C)(C)OC(=O)COc1cccc(C(=O)NC2CCCC(=O)NC2=O)n1` (centres unmarked) [Example 69, tert-Butyl 2-(6-((2,7-dioxoazepan-3-yl)carbamoyl)pyridin-2-yl) oxyacetate] came in with a dissociation constant Kd of 50 to 100 µM.

For the molecule `Nc1ccccc1OC1CCCC(=O)NC1=O` (centres unmarked) [Example 66-2, 3-(2-Aminophenoxy) azepane-2,7-dione], the Kd is at least 100 µM. The result for `O=C1CCCC2(CCN(c3ncc([N+](=O)[O-])cc3Cl)C2)C(=O)N1` (centres unmarked) [Example 77, 2-(3-chloro-5-nitro-2-pyridyl)-2,7-diazaspiro[4.6]undecane-6,8-dione] reads below 50 µM; that for `CC(C)(C)OC(=O)N1CCc2c(ncnc2N2CCC3(CCCC(=O)NC3=O)C2)C1` (centres unmarked) [Example 190, tert-Butyl 4-(6,8-dioxo-2,7-diazaspiro[4.6]undecan-2-yl)-6,8-dihydro-5H-pyrido[3,4-d]pyrimidine-7-carboxylate], at least 100 µM. As to `O=C1CCCC2(CCN(C(=O)C3CCN(c4ncccn4)CC3)C2)C(=O)N1` (centres unmarked) [Example 269, 2-(1-Pyrimidin-2-ylpiperidine-4-carbonyl)-2,7-diazaspiro [4.6]undecane-6,8-dione], the Kd is at least 100 µM. `O=C1CCCC(n2nc(Cl)ccc2=O)C(=O)N1` (centres unmarked) [Example 252, 3-(3-Chloro-6-oxopyridazin-1-yl)azepane-2,7-dione] showed an equilibrium dissociation constant (Kd) of at least 100 µM. For `CN(C1CCCC(=O)NC1=O)S(=O)(=O)c1cccc(Cl)c1` (centres unmarked) [Example 10, 3-Chloro-N-(2,7-dioxoazepan-3-yl)-N-methylbenzenesulfonamide], the Kd is at least 100 µM. With `COC(=O)c1cccc(S(=O)(=O)N(C)C2CCCC(=O)NC2=O)c1` (centres unmarked) [Example 11, Methyl 3-[(2,7-dioxoazepan-3-yl)-methylsulfamoyl]benzoate] the figure was at least 100 µM; with `Cc1cc([N+](=O)[O-])ccc1N1CCC2(CCCC(=O)NC2=O)C1` (centres unmarked) [Example 82, 2-(2-Methyl-4-nitrophenyl)-2,7-diazaspiro[4.6]undecane-6,8-dione], 50 to 100 µM; with `O=C(O)CCCCCCCc1nn(C2CCCC(=O)NC2=O)c2ccccc12` (centres unmarked) [Example 209, 8-[1-(2,7-Dioxoazepan-3-yl)indazol-3-yl]octanoic acid], at least 100 µM. With `O=C1CCCC2(CCN(c3ccc([N+](=O)[O-])cc3Cl)C2)C(=O)N1` (centres unmarked) [Example 84, 2-(2-Chloro-4-nitrophenyl)-2,7-diazaspiro[4.6]undecane-6,8-dione] the figure was below 50 µM; with `CC(=O)N1CCc2nc(N3CCC4(CCCC(=O)NC4=O)C3)ncc2C1` (centres unmarked) [Example 178, 2-(6-Acetyl-7,8-dihydro-5H-pyrido[4,3-d]pyrimidin-2-yl)-2,7-diazaspiro[4.6]undecane-6,8-dione], below 50 µM.
